Reference: paper PMC10865350, “Investigating Polypharmacology through Targeting Known Human Neutrophil Elastase Inhibitors to Proteinase 3” (Journal of Chemical Information and Modeling, 2024)
Read-outs that look alike come from different tables or passages of the source.

Experiments:
[1] = tested on: human neutrophil elastase (HNE); conditions: Bayer HealthCare AG value; cited from earlier work
[2] = tested on: human neutrophil elastase (HNE); assay: HNE inhibition IC50 reported by Bayer HealthCare AG (literature values); assay type: biochemical; conditions: 298.15 K; calculated from Bayer HealthCare AG IC50 values, Nussbaum et al. refs 9-11
Text: To ensure we had the best models to represent the selected ligands and their interactions with the protein, we explored four different force field combinations for protein and ligands (Table 2) and compared the predicted values to published experimental data for HNE. […] The predicted free energies obtained with MSλD are provided in Table S3 together with the free energies derived from published experimental data.

[3] = target: T1, HNE (Homo sapiens, UniProt P08246); assay: Enzymatic activity assay, HNE (fluorogenic substrate MeOSuc-AAPV-AMC); assay type: biochemical; conditions: best enantiomer for compounds 5-8
T1 construct: purchased Athens Research and Technology
T1 sequence (P08246 30-267): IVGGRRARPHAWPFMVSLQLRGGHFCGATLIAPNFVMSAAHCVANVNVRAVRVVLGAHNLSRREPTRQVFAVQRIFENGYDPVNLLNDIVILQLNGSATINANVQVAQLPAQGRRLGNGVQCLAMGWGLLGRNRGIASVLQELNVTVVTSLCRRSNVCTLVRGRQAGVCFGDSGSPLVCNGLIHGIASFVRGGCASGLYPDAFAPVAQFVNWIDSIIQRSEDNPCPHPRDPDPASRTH
Protocol: (§1) II.1 Experimental details
(§2) Chemicals. All chemicals and reagents were of analytical grade. Enzymes, PR3 and HNE, were purchased from Athens Research and Technology.
(§3) India) using published procedures.42 The substrate of HNE (MeOSuc-AAPV-AMC) was supplied by Santa Cruz Biotechnology.
(§4) Activity assay. The enzymatic assays for both PR3 and HNE were conducted according to the method published in (Budnjo et al., 2014) with minor modifications. Briefly, 0.5 nM of enzyme […]
(§5) same buffer containing the inhibitors at various concentrations for 30 min at RT. For PR3, the […]
(§6) 320, emission filter 420) at a final concentration of 5 μM while the HNE reaction was started by […]
(§7) at a final concentration of 5 μM. The fluorescent signal was read every 30 second for 30 min at 30 °C using a fluorescent plate reader (Tecan Spark). The enzymatic activity was measured from the initial linear portion of the slope (fluorescent signal/min) of the time-course curve of reaction progress. The activity data were produced in triplicates. Data were fitted using nonlinear regression analysis (GraphPad Prism v.9) to determine the IC50 values.

[4] = target: Proteinase 3 (PR3); assay: Enzymatic activity assay, PR3 (FRET peptide Abz-VADnVADYQ-EDDnp); assay type: biochemical, human; conditions: selectivity: PR3 IC50 with respect to HNE IC50
Protocol: as §1, §2, §3, §4, §5, §6, §7

[5] = target: T2, Proteinase 3 (PR3) (Homo sapiens, UniProt P24158); assay: as above; assay type: biochemical; conditions: best enantiomer for compounds 5-8
T2 construct: purchased Athens Research and Technology
T2 sequence (P24158 28-256): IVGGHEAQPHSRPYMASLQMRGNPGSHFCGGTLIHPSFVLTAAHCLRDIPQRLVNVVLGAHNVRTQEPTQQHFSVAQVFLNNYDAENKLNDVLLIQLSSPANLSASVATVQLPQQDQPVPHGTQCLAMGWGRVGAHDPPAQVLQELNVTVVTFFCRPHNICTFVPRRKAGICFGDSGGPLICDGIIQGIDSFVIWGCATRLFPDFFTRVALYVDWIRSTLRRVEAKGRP
Protocol: as §1, §2, §3, §4, §5, §6, §7

[6] = 0.5 nM enzyme, 5 μM substrate, triplicates, read-out: IC50 HNE
[7] = read-out: pIC50 HNE (converted)
[8] = 0.5 nM enzyme, 5 μM FRET peptide, triplicates, read-out: IC50 PR3

ΔGexpt HNE (ΔG = RTln(IC50)) [2] [kJ/mol]	IC50 [3, 6] [nM]	IC50 [3, 7] [nM]	IC50 ratio (PR3/HNE) [4]	IC50 [5, 8] [nM]	IC50 ([5]; read-out: pIC50 PR3 (converted)) [nM]	Compound	IC50 [1] [nM]
-41.4	–	–	–	–	–	CNS(=O)(=O)Nc1nc2n(n1)[C@H](c1ccc(C#N)cc1)C(C#N)=C(C)N2c1cccc(C(F)(F)F)c1 [Compound 10]	50
-54	0.8 ± 0.1	0.794	74	58.9 ± 6	–	CNC(=O)Nc1nc2n(n1)[C@H](c1ccc(C#N)cc1)C(C#N)=C(C)N2c1cccc(C(F)(F)F)c1 [Compound 8]	0.3
-45.2	–	–	–	–	–	CC1=C(C#N)[C@@H](c2ccc(C#N)cc2)n2nc(NS(C)(=O)=O)nc2N1c1cccc(C(F)(F)F)c1 [Compound 9]	12
-53.6	0.6	0.794	13	7.7 ± 0.6	–	CC1=C(C#N)[C@@H](c2ccc(C#N)cc2)n2nc(NC(=O)C3CC3)nc2N1c1cccc(C(F)(F)F)c1 [Compound 6]	0.35
-55.6	1.1 ± 0.1	1.26	19	–	20	COC(=O)Nc1nc2n(n1)[C@H](c1ccc(C#N)cc1)C(C#N)=C(C)N2c1cccc(C(F)(F)F)c1 [Compound 7]	0.17

The next lines start with the compound.

Compound	ΔGexpt HNE (ΔG = RTln(IC50)) [2] [kJ/mol]	IC50 [3, 6] [nM]	IC50 [3, 7] [nM]	IC50 ratio (PR3/HNE) [4]	IC50 [5, 8] [nM]	IC50 ([5]; read-out: pIC50 PR3 (converted)) [nM]	IC50 [1] [nM]
CNc1nc2n(n1)[C@H](c1ccc(C#N)cc1)C(C#N)=C(C)N2c1cccc(C(F)(F)F)c1 [Compound 5]	-52.3	1.3 ± 0.2	1.26	146	190 ± 10	–	0.59
CC1=C(C#N)[C@@H](c2ccc(C#N)cc2)n2nc(N)nc2N1c1cccc(C(F)(F)F)c1 [Compound 3]	-49	–	–	–	–	–	2.5
COc1nc2n(n1)[C@H](c1ccc(C#N)cc1)C(C#N)=C(C)N2c1cccc(C(F)(F)F)c1 [Compound 4]	-40.6	–	–	–	–	–	69
CC1=C(C#N)[C@@H](c2ccc(C#N)cc2)n2nc(NC(=O)C3CCCCC3)nc2N1c1cccc(C(F)(F)F)c1 [Compound 11]	–	–	–	–	–	–	< 0.3
CC1=C(C#N)[C@@H](c2ccc(C#N)cc2)n2ncnc2N1c1cccc(C(F)(F)F)c1 [Compound 2]	-44.4	–	–	–	–	–	15
